{"source": "paper PMC12116161", "about": "“An Elastase Inhibitor ShSPI from Centipede Attenuates Bleomycin-Induced Pulmonary Fibrosis” (Toxins, 2025)", "tested_on": "MCP-1, IL-6, IL-1β, IFN-γ, IL-10, TGF-β mRNA in lung tissue", "assay": "RT-qPCR of inflammatory factor mRNA in lung tissue of IPF mice", "assay_type": "in vivo, ICR mice", "conditions": "pirfenidone 200 mg/kg oral gavage once daily for 7 days, BLM-induced IPF mice", "method": "Animal Model Preparation: The peptide powder was dissolved in pre-cooled saline and filtered to remove bacteria, then a spray needle was attached to a micro-syringe to aspirate the peptide solution. A total of 56 ICR mice were anesthetized by intramuscular injection of avertin. After anesthesia, the mice were fixed supine, the tongue was gently pulled, the vocal folds were exposed with a laryngoscope, the trachea was gently inserted, and the nebulized solution was rapidly pushed and injected. Each mouse was administered 100 μL of a 0.4 mg/mL bleomycin solution via tracheal spray, with the treatment performed once. Seven days after modeling, the mice were randomly grouped for ShSPI treatment based on weight loss scores. An additional 8 mice received the vehicle (normal saline) and were designated as the sham group.\nA total of 48 suitable mice were randomly divided into five groups: the model control group (MC), the positive control group (PC), and the ShSPI low-dose groups (1 mg/kg), medium-dose groups (2 mg/kg), and high-dose groups (4 mg/kg).\nDrug Administration: Starting on day 7 post-modeling, ShSPI peptide treatment groups were anesthetized with intramuscular avertin and received tracheal spray administration of the peptide. The low-dose group was treated with 1 mg/kg ShSPI peptide, the medium-dose group with 2 mg/kg, and the high-dose group with 4 mg/kg. The positive control group, without anesthesia, received 200 mg/kg pirfenidone (IPFD) via oral gavage. All groups were treated once daily for seven consecutive days.\nThe left lobe of the lung was collected from each mouse for total RNA extraction using RNAiso Plus, following the manufacturer’s instructions. The extracted RNA was quantified using a UV spectrophotometer. One microgram of total RNA was reverse transcribed into cDNA using a first-strand cDNA synthesis kit, following the provided protocol. Quantitative PCR (qPCR) was performed on a QuantStudio system using 2× SYBR Green qPCR Master Mix, and β-actin served as the internal control. The PCR reaction utilized a two-step protocol: 95 °C for 15 s, followed by 60 °C for 60 s, repeated for 40 cycles. Gene expression levels were calculated using the 2^−ΔΔCt method.", "data": [{"smiles": "Cc1ccc(=O)n(-c2ccccc2)c1", "note": "[pirfenidone, reference compound]", "values": [{"measurement": "mRNA content of pro-inflammatory cytokines (MCP-1, IL-6, IL-1β, IFN-γ) in lung tissue", "value": "reduction"}]}]}
